Measured values published in patent publication US20240197701A1, “ANDROGEN RECEPTOR INHIBITION TO TREAT SEPSIS AND SHOCK” (priority 2021, published 2024).
Read-outs that look alike come from different tables or passages of the source.

Experiments:
COVID-19 [1] = conditions: intensive care observational series; cited from earlier work
COVID-19 [2] = conditions: RECOVERY platform trial; cited from earlier work
SARS-COV-2 [3] = conditions: for Resolution of Symptoms Odds ratio / Viral Clearance Odds ratio: multivariate logistic regression, within 7 days, azithromycin with the listed drug(s), hydroxychloroquine = reference, N = 475; for Resolution of Symptoms Odds ratio: except anosmia, ageusia; for Increase in viral clearance rate: first 7 days of therapy; for Increase in viral clearance rate / Increase in symptom resolution rate: versus control; for Increase in symptom resolution rate: first week of therapy; for Viral clearance at seven days in men: spironolactone compared to dutasteride; for Odds ratio for viral clearance within seven days when used with nitazoxanide: multivariate analysis; for Adverse events: short duration administration
[4] = in vivo; cited from earlier work
SARS-COV-2 [5] = conditions: dutasteride 0.5 mg per day, male patients; cited from earlier work
COVID-19 [6] = conditions: 5 mg daily, without achieving statistical significance; cited from earlier work
COVID-19 [7] = conditions: single case, after starting proxalutamide; cited from earlier work
COVID-19 [8] = experiment: Proxalutamide treatment for hospitalized COVID-19 patients, double-blinded placebo-controlled trial, preliminary report; type: in vivo; conditions: n = 294
SARS-COV-2 [9] = conditions: cited from earlier work
COVID-19 [10] = tested on: COVID-19
COVID-19 [11] = conditions: cited from earlier work

## C[C@]12CCC(=O)C=C1C=C[C@@H]1[C@@H]2CC[C@@]2(C)[C@H]1CC[C@@]21CCC(=O)O1 [Canrenone]
COVID-19 [1]
  Fatalities: reduced fatalities

## COc1cc2c(c(OC)c1OC)-c1ccc(OC)c(=O)cc1[C@@H](NC(C)=O)CC2 [Colchicine]
COVID-19 [2]
  28-day mortality rate ratio: 1.01

## CCN(CCO)CCCC(C)Nc1ccnc2cc(Cl)ccc12 (stereo not shown) [Hydroxychloroquine]
SARS-COV-2 [3]
  Resolution of Symptoms Odds ratio: 1
  Viral Clearance Odds ratio: 1

## CC(=O)Oc1ccccc1C(=O)Nc1ncc([N+](=O)[O-])s1 [Nitazoxanide]
SARS-COV-2 [3]
  Resolution of Symptoms Odds ratio: 2.08
  Viral Clearance Odds ratio: 1.88
SARS-COV-2 [3]; two times a day for 6 days combined with azithromycin
  Association with faster viral clearance: not associated faster clearance

## C[C@]12C=CC(=O)N[C@@H]1CC[C@@H]1[C@@H]2CC[C@]2(C)[C@@H](C(=O)Nc3cc(C(F)(F)F)ccc3C(F)(F)F)CC[C@@H]12 [dutasteride]
SARS-COV-2 [3]
  Increase in viral clearance rate: 320%
  Increase in symptom resolution rate: 70%
  Viral clearance at seven days in men: 21%
  Adverse events: no adverse events noted
SARS-COV-2 [3]; with nitazoxanide
  Odds ratio for viral clearance within seven days when used with nitazoxanide: 7.1
SARS-COV-2 [3]; nitazoxanide male users
  Viral clearance at seven days among nitazoxanide male users: 21%
[4]
  Half-life: five
SARS-COV-2 [5]
  Viral clearance at seven days: 64.3%

## CC(C)(C)NC(=O)[C@H]1CC[C@H]2[C@@H]3CC[C@H]4NC(=O)C=C[C@]4(C)[C@H]3CC[C@]12C [finasteride]
[4]
  Half-life: six
COVID-19 [6]
  Inpatient mortality: reduced inpatient mortality

## CC1(C)C(=O)N(c2ccc(C#N)c(C(F)(F)F)c2F)C(=S)N1c1ccc(CCCc2ncco2)nc1 [proxalutamide]
COVID-19 [7]
  Time to striking symptom resolution and laboratory improvement: twenty-four
COVID-19 [8]; hospitalized COVID-19 patients, proxalutamide 300 mg q.d.
  Mortality (%) Day 14: 3.7%
COVID-19 [8]
  Discharged (%) Day 14: 89.1%
  Full clinical remission (%) Day 14: 75.9%
  HFO, NIV, or MV use, or death (%) Day 14: 4.8%
  Hospital Length Stay (Days) Mean ± SD: 6.3 ± 5.3 days
  Hospital Length Stay (Days) Median (IQR): 5.0 days
  Improvement in clinical status - Ordinary scale (days) One point Mean ± SD: 3.0 ± 5.5 days
  Improvement in clinical status - Ordinary scale (days) One point Median (IQR): 1.0 days
  Improvement in clinical status - Ordinary scale (days) Two points Mean ± SD: 5.5 ± 7.1 days
  Improvement in clinical status - Ordinary scale (days) Two points Median (IQR): 3.0 days
  New mechanical ventilation (MV) or Death (%) Day 14: 4.4%
  No HFO or NIV use (%) Day 14: 95.2%
  No oxygen use (%) Day 14: 92.5%
SARS-COV-2 [9]; men
  Viral clearance at seven days in men: 81%
SARS-COV-2 [9]; women
  Viral clearance at seven days in women: 85%
COVID-19 [10]; COVID-19 8-point ordinal scale
  28-day median ordinal scale score: 1
COVID-19 [10]; COVID-19 8-point ordinal scale, intention-to-treat, proxalutamide 300 mg/day
  14-day median ordinal scale score: 1
COVID-19 [10]; alive hospital discharge
  Median post-randomization time to recovery: 5 days
COVID-19 [10]; alive hospital discharge (scores 1, 2), intention-to-treat
  14-day recovery rate: 81.4%
COVID-19 [10]; during the study period
  Less likely to die than patients in the control group: 84%
COVID-19 [10]; human, in vivo
  Median hospitalization time (days): eight
  Treatment emergent adverse events: limited to diarrhea
COVID-19 [10]; increased until day 11
  Difference in the proportion of alive hospital discharge: 75%
COVID-19 [10]; intention-to-treat
  28-day all-cause mortality rate: 11.0%
COVID-19 [10]; over 28 days, versus placebo
  Hazard ratio for all-cause mortality (death): 0.16
  Risk ratio for death: 0.22
COVID-19 [10]; over twenty-eight days
  Number needed to treat (NNT) to prevent one death: 3
COVID-19 [10]; proxalutamide arm
  Adverse events grades 4 or 3: 2.2%
  Diarrhea: 16.1%
  Irritability: 1.3%
COVID-19 [10]; versus placebo
  14-day recovery ratio: 2.28
  28-day recovery ratio: 1.81
  Higher recovery rate than placebo at 28 days: 81%
  Higher recovery rate than placebo at day 14: 128%
COVID-19 [11]; compared to usual care
  Reduction of the risk of hospitalization: 91%
COVID-19 [11]; proxalutamide 200 mg for up to seven days, men
  30-day hospitalization rate: 2.2%

## CC(=O)S[C@@H]1CC2=CC(=O)CC[C@]2(C)[C@H]2CC[C@@]3(C)[C@@H](CC[C@@]34CCC(=O)O4)[C@H]12 [spironolactone]
SARS-COV-2 [3]
  Increase in viral clearance rate: 320%
  Increase in symptom resolution rate: 70%
  Viral clearance at seven days in men: 40%
  Adverse events: no adverse events noted
SARS-COV-2 [3]; with nitazoxanide
  Odds ratio for viral clearance within seven days when used with nitazoxanide: 10.1
  Viral clearance at seven days, added to nitazoxanide: 42%
SARS-COV-2 [3]; spironolactone initiated at the time of COVID-19 diagnosis
  Viral clearance at seven days: 34%
SARS-COV-2 [3]; with ivermectin
  Viral clearance at seven days, added to ivermectin: 26%

## Ivermectin
SARS-COV-2 [3]
  Resolution of Symptoms Odds ratio: 1.45
  Viral Clearance Odds ratio: 0.32
